# Values of other authors in US12171169B2, “Pest repelling drip irrigation pipe” (RIVULIS PLASTRO LTD., priority 2017, dated 2024).
# Columns and labels:
# humans = details: 1S-cis versus 1R-cis enantiomer
# pests = details: 1R-cis versus 1S-cis enantiomer
SMILES,toxicity to humans relative to 1R-cis-bifenthrin (humans),effectiveness as a pesticide relative to 1S-cis-bifenthrin (pests)
"Cc1c(COC(=O)[C@H]2[C@@H](/C=C(\Cl)C(F)(F)F)C2(C)C)cccc1-c1ccccc1 [1S-cis-Bifenthrin, (2-methyl-[1,1′-biphenyl]-3-yl)methyl (1S,3S)-3-((Z)-2-chloro-3,3,3-trifluoroprop-1-en-1-yl)-2,2-dimethylcyclopropane-1-carboxylate]",3-4 times,
"Cc1c(COC(=O)[C@@H]2[C@H](/C=C(\Cl)C(F)(F)F)C2(C)C)cccc1-c1ccccc1 [1R-cis-bifenthrin, (2-methyl-[1,1′-biphenyl]-3-yl)methyl (1R,3R)-3-((Z)-2-chloro-3,3,3-trifluoroprop-1-en-1-yl)-2,2-dimethylcyclopropane-1-carboxylate]",,more than 300 times
